Laboratory results as given in paper PMC7367283, “A PIP2 substitute mediates voltage sensor-pore coupling in KCNQ activation” (Communications Biology, 2020).
Values joined by “and” are separate entries in the source; they are usually repeats but may differ in a detail not shown here. Equal entries are not always repeated.

Biological target: KCNQ2/KCNQ3 (Homo sapiens, UniProt O43525+O43526)
Assay: Two-electrode voltage clamp of KCNQ2+KCNQ3 in Xenopus oocytes
Type: cell-based
Conditions: Q2/Q3, individual oocytes
Description: KCNQ2 and KCNQ3 form a channel complex that carries M currents in neurons. Similar to KCNQ1, these KCNQ subunits require PIP2 for voltage-dependent activation. KCNQ2 alone can express functional channels in Xenopus oocytes, while KCNQ3 alone cannot. However, a single mutation, A315T, allows KCNQ3 to functionally express in Xenopus oocytes. We examined the effects of CP1 on KCNQ2, KCNQ3 with mutation A315T (denoted as KCNQ3*), KCNQ2+KCNQ3, and KCNQ2+KCNQ3* expressed in Xenopus oocytes (Fig. 5a). Similar to the effects on KCNQ1 and IKs channels, CP1 changed the amplitude of currents (Fig. 5b), shifted the G–V relation to more negative voltages (Fig. 5c), and slowed the deactivation kinetics (Fig. 5d) for all of these KCNQ channels. These CP1 effects were relatively small on KCNQ2 as compared with those on other KCNQ channels, and the effects on KCNQ2/KCNQ3* and KCNQ2/KCNQ3 complexes were closer to those on KCNQ2 alone.
Fig. 5 Subtype selectivity of CP1 on KCNQ channels. a Current traces of KCNQ channels as indicated in the absence and the presence of 10 µM CP1. […]
The whole-oocyte ionic currents were recorded with a GeneClamp 500B amplifier (Axon Instruments, CA) or iTEV90 amplifier (HEKA, Germany) and then sampled at 1 kHz and low-pass-filtered at 2 kHz. […] The Kir1.1 current was recorded with a high K^+ bath solution containing (in mM) 96 KCl, 4 NaCl, 1 CaCl2, 2 MgCl2, and 10 HEPES, pH 7.3–7.4. The HCN4 current was recorded in ND66 solution containing (in mM) 66 NaCl, 32 KCl, 1.8 CaCl2, 1 MgCl2, and 5 HEPES, pH 7.6. All the other potassium channels were recorded in ND96 solution. The currents of CaV1.2 channel were recorded in 40 mM Ba^2+ bath solution containing (in mM) 40 Ba(OH)2, 50 TEA-OH, 2 KOH, and 5 HEPES, adjusted to pH 7.4 with methanesulfonic acid. […] The HCN4 currents were recorded by a test pulse between −30 and −140 mV in 10-mV step from a holding potential of −30 mV. […]

O=S(=O)([O-])Oc1c(-c2sc3c(ccc4cccc(Cl)c43)c2OS(=O)(=O)[O-])[nH]c2ccc(Br)cc12.[Na+].[Na+] [CP1, DISODIUM 5-BROMO-2-[9-CHLORO-3-(SULFONATOOXY) NAPHTHO [1,2-B] THIEN-2-YL]-1H-INDOL-3-YL SULFATE]
outward current (Icp1/Ictrl) (10 µM CP1, at −10 mV): 1.7551 and 1.3309 and 1.0976 and 1.4059
∆V1/2 (10 µM CP1): 15.349 mV and 10.5931 mV and 18.0231 mV and 10.5937 mV
τ deact at -120 mV (10 µM CP1 treated): 0.1194 s and 0.1528 s and 0.295 s and 0.1626 s
